Measured values reported in patent publication US9750761B2, “LDH inhibitors as treatment for fibrosis and fibrotic-related disorders” (University of Rochester, priority 2014, dated 2017).

Key:
[1] = tested on: primary human lung fibroblasts; test: Radiation-induced myofibroblast differentiation (α-SMA, LDHA Western blot); type: cell-based; conditions: SB431542 2.5 μM from 1 hour before 7 Gy, 5 days post radiation
Description: Cell Culture and Irradiations: Fibroblasts were cultured in Eagle's minimum essential media (Life Technologies, Gaithersburg, Md.) supplemented with 10% FBS (Sigma Aldrich, St. Louis, Mo.), 2 mM L-Glutamine, antibiotic and antimycotic (Gibco, Carlsbad, Calif.) at 37° C. with 7% CO2. Cells were irradiated with a ^137Cs γ-ray source at approximately 2.70 cGy/min dose rate at indicated doses. Human recombinant TGF-β1 (R&D systems, Minneapolis, Minn.) was used at 1 ng/ml. […] TGF-β1 receptor 1 was inhibited using SB431542 (Sigma Aldrich) at 2.5 μM starting 1 hour prior to irradiations.
Western Blotting: Cell lysates were run on SDS-PAGE under reducing conditions and probed for expression of α-SMA (Sigma Aldrich), LDHA (Abcam, Cambridge, Mass.). Glyceraldehyde 3-phosphate dehydrogenase (Abcam) was used as a loading control.

[2] = tested on: primary human lung fibroblasts; test: Alamar blue assay; type: cell-based; conditions: 72 hours
Description: Alamar blue assay: Fibroblasts were cultured with and without TGF-β and/or gossypol for 72 hours and subsequently incubated with Alamar blue (Invitrogen, Grand Island, N.Y.). Alamar blue incorporation was determined by spectrophotometric analysis per the manufacturer's protocol.
Based on the foregoing results, it was believed that gossypol inhibits endogenous LDH activity, thus reducing lactate production and subsequent lactate-dependent activation of latent TGF-β in the medium. To investigate the mechanism of action of gossypol, fibroblasts were first treated with TGF-β for 72 hours. Next, protein lysates were harvested and incubated with increasing concentrations of gossypol for one hour. The LDH activity of each lysate was then determined with a standardized LDH kinetic activity assay. […] Next, it was investigated whether gossypol could prevent the extracellular accumulation of lactate by treated fibroblasts. […] To confirm that gossypol inhibits extracellular accumulation of lactate, the rate of extracellular acidification was measured using the commercially available Seahorse Bioassay. […] To determine whether the effects of gossypol were dependent on toxic effects on the cells, the Alamar blue assay was utilized.

| SMILES | radiation-induced α-SMA expression [1] | Alamar blue reduction ([2]; 1 mM gossypol) | Alamar blue reduction ([2]; 5 mM gossypol) | decrease in Alamar blue reduction ([2]; 10 mM gossypol) [%] |
| --- | --- | --- | --- | --- |
| NC(=O)c1ccc(-c2nc(-c3ccc4c(c3)OCO4)c(-c3ccccn3)[nH]2)cc1 [SB431542] | significantly attenuated radiation-induced α-SMA expression |  |  |  |
| Cc1cc2c(C(C)C)c(O)c(O)c(C=O)c2c(O)c1-c1c(C)cc2c(C(C)C)c(O)c(O)c(C=O)c2c1O [gossypol] |  | no significant effect on Alamar blue reduction | no significant effect on Alamar blue reduction | 50 |
